How the values were obtained:
LN229 MGMT− shMLH1 cells = test: Short-term viability assay, LN229 MGMT- shMLH1; type: cell-based, human; conditions: for IC50: Homo sapiens, LN-229, Table III, read-out: IC50 against LN229 cell lines, MGMT− MMR−; for MGMT− RI: Table III
Description: The activity of KL-50 in MGMT-LN229 cells engineered to lack expression of other key MMR proteins including MSH6, MLH1, PMS2, and MSH3 was also confirmed. Western blotting was performed in LN229 MGMT+/−cells with stable expression of shRNA targeting MSH6, MLH1, PMS2, or MSH3 to confirm depletion of the shRNA targets. In shMSH6 cells, there was reduced expression of MSH2, and in shMLH1 cells, there was loss of PMS2, due to destabilization in the setting of loss of their heterodimeric partners. GAPDH serves as loading control. […] Short-term viability assay curves for KL-50 in LN229 MGMT+/−, MMR+/shMSH6 cells. […] Short-term viability assay curves for KL-50 in LN229 MGMT+/−, MMR+/shMLH1 cells. […] Short-term viability assay curves for KL-50 in LN229 MGMT+/−, MMR+/shPMS2 cells. […] Short-term viability assay curves for KL-50 in LN229 MGMT+/−, MMR+/shMSH3 cells.
MMR Protein shRNA Knockdown. pGIPZ lentiviral shRNA vectors targeting MSH2, MSH6, MLH1, PMS2, and MSH3 were purchased from Horizon Discovery (Table IV). Lentiviral particles were produced in HEK293T cells via co-transfection with lentiviral shRNA plasmid, pCMV-VSV-G envelope plasmid (Addgene, #8454) and psPAX2 packaging plasmid (Addgene, #12260), using Lipofectamine 3000 Reagent (Invitrogen, L3000001) per manufacturer's protocol. Viral particles were harvested 48 h post-transfection and used to transduce LN229 MGMT+/−cells in the presence of 8 μg/mL polybrene. Selection of pooled cells with lentiviral expression was established with 1 μg/mL puromycin 48 h post-transduction for 3 to 4 days. Single cell cloning was performed by limiting dilution and protein knockdown was confirmed by western blotting.
Short-term Cell Viability Assay. Cells were seeded in 96-well plates at 1000 or 2000 cells/well and allowed to adhere at 23° C. for 60 min and then incubated overnight at 37° C. Cells were treated with indicated concentrations of compounds in triplicate for 4-6 days prior to fixation with 3.7% paraformaldehyde and nuclear staining with 1 μg/mL Hoechst 33342 dye. Cells were imaged on a Cytation 3 imaging reader (BioTek) and quantified using CellProfiler software. For in vitro short-term growth delay experiments, IC50 values were determined from the nonlinear regression equation, [inhibitor] vs normalized response with variable slope.

[1] = tested on: LN229 MGMT−/MMR− flank tumors; test: Murine flank tumor model, LN229 MGMT-/MMR-; type: in vivo; conditions: for tumor growth, MGMT−/MMR− flank tumors: P.O.; for median OS: LN229 MGMT−/MMR− flank tumor-bearing mice, 5 mg/kg
Source text: FIGS. 9A-91: KL-50 is safe and efficacious on both MGMT−/MMR+ and MGMT−/MMR-flank tumors over a wide range of treatment regimens and conditions. […] (FIG. 9C) Mean body weight of mice during LN229 flank tumor experiments. (FIG. 9D) Kaplan-Meier analysis of LN229 MGMT−/MMR− xenograft flank tumor-bearing mice to determine survival rate based on death, removal from study if mouse body weight loss exceeded 20% of initial body weight, or if tumor volume exceeded 2000 mm^3. […] (FIGS. 9H-91) Xenograft LN229 MGMT−/MMR+ and LN229 MGMT−/MSH6—flank tumors with a larger average starting tumor size of −400 mm^3 and −350 mm^3 respectively, treated with 3 weekly cycles of P.O administration of 10% cyclodextrin (n=4) or KL-50 (n=4, 3 cycles of 25 mg/kg on Monday, Wednesday, and Friday). The study period was limited by control groups which had to be euthanized for exceeding the ethical maximum allowed tumor size, thus ending the study. In all panels, points, mean; error bars, SEM; *, P<0.05; **, P<0.01; ***, P<0.001; ****, P<0.0001; ns, not significant.
Mouse Protocols for Flank Studies. A mouse tumor model was established by subcutaneously implanting human LN229 (MGMT−/MMR+) or LN229 (MGMT−/MMR−) cells. Cells were cultured as a monolayer in DMEM+10% FBS (Thermo Fisher) at 37° C. in a humidified atmosphere with 5% CO2 and passaged between one and three days prior to implantation and media was replaced every 2-3 days as needed to maintain cell viability. Cells were not allowed to exceed 80% confluency. On the day of implantation, cells were trypsinized, washed with complete media and pelleted by centrifugation at 1200 rpm for 5 minutes. The supernatant was decanted, and cells were washed three times with sterile PBS and pelleted by centrifugation. During the final centrifugation, viability was determined using trypan blue exclusion. Cells were resuspended in sterile PBS and diluted 1:1 in Matrigel (Coming, Cat #47743-716) for a final concentration of 5×10^6 cells/100 μL. 5 million cells were injected into the flank of female nude mice (Envigo, Hsd:Athymic Nude-Fox1nu, 3-4 weeks age, 15 g). […] Caliper measurements were obtained during the dosing period and at least two weeks following treatment. Mice were euthanized if body weight loss exceeded 20% or if tumor volume increased to greater than 2000 mm^3. Kaplan-Meier analysis was used to evaluate survival rate based on death or removal from study.

[2] = tested on: LN229 MGMT−/MMR− intracranial tumors; test: Orthotopic intracranial LN229 MGMT-/MMR- model; type: in vivo, mouse; conditions: 25 mg/kg IP M-F x 1 week as printed
Source text: FIGS. 10A-10G. KL-50 is efficacious in an LN229 MGMT−/MMR− intracranial model and is well tolerated with limited myelosuppression at supratherapeutic doses. […] (FIG. 10B) Mean body change with SEM of mice during maximum tolerated dose experiment in non-tumor bearing mice. (FIGS. 10C-10G) Complete blood counts for mice pre-treatment and 7 days post-treatment with escalations of single dose KL-50 delivered PO. WBC lower limit of normal (LLN): 2.2 K/L; Neutrophils LLN: 0.42 K/L; Lymphocyte LLN: 1.7 K/L; RBC LLN: 3.47 M/L; Platelet LLN: 155 K/L. *, P<0.05; ****, P<0.0001.
Mouse Protocol for Intracranial Study. LN229 MGMT−/MMR− cells stably expressing firefly luciferase (lentivirus-plasmids from Cellomics Technology; PLV-10003), were injected intracranially using a stereotactic injector. Briefly, 1.5 million cells in […] PBS were injected into the brain and the mice were imaged weekly using the IVIS Spectrum In Vivo Imaging System (PerkinElmer) according to the manufacturer's protocol. Images were taken on a weekly basis and acquired 10 min post intraperitoneal injection with d-luciferin (150 mg/kg of animal mass). […] Quantification of BLI flux (photons/see) was made through the identification of a region of interest (ROI) for each tumor.

SMILES	IC50 (LN229 MGMT− shMLH1 cells)	MGMT− RI (LN229 MGMT− shMLH1 cells)	tumor growth, MGMT−/MMR− flank tumors ([1]; 5 mg/kg MWF x 3 weeks)	body weight during flank tumor experiments ([1]; 5 mg/kg MWF x 3 weeks, compared to TMZ or control)	median OS ([1]; Kaplan-Meier)	increase in median OS for KL-50 vs TMZ ([1]; Kaplan-Meier, MGMT−/MMR− flank)	intracranial tumor growth (BLI) [2]
NC(=O)c1ncn2c(=O)n(CCF)nnc12 [KL-50]	7.8 ± 0.3 µM	0.6	potently suppressed tumor growth	no significant changes in body weight	greater than 15 weeks	greater than 5 week	effective
Cn1nnc2c(C(N)=O)ncn2c1=O [TMZ, 4-methyl-5-oxo-2,3,4,6,8-pentazabicyclo[4.3.0]nona-2,7,9-triene-9-carboxamide, reference compound]	917 ± 85 µM	180	no efficacy		10 weeks		only transiently suppressed tumor growth
